According to US20160031937A1, “NEURAL REGENERATION PEPTIDES AND USES THEREFOR” (CURONZ HOLDINGS COMPANY LIMITED, priority 2013, published 2016):
Like-named read-outs stand apart in the source and are kept apart here. Square brackets hold non-standard residues; d marks the D form. Ends that are not written are not given here. Aib = CC(C)(N)C(=O)O

Key:
human W9-hESCs [1] = format: cell-based; details: for reduction in LDH detected cell death: first 4 hours; for decrease of delayed injury (LDH): between removal of OGD at 4 hours and 24 hours
Procedure: Experiments with human embryonic stem cells (hESC) were carried out in accordance with the guidelines and regulations of the NHMRC and with the approval of the Austin Health Human Research Ethics Committee (Approval number H2008/03194), and University of Melbourne Human Research Ethics Committee (Approval number 0605017). H9 (WA-09, WiCell) cell lines were grown as previously described (Dottori & Pera, 2007).
Briefly, hESC were cultured on mitomycin-C treated mouse embryonic fibroblasts (MEFs) in hESC medium consisting of high-glucose Dulbecco's Modified Eagle Medium (DMEM) without sodium pyruvate, supplemented with 1% insulin/transferrin/selenium, 0.1 mM β-mercaptoethanol, 1% nonessential amino acids (NEAA), 2 mM glutamine, 25 U/ml penicillin, 25 μg/ml streptomycin (all from Invitrogen) and 20% fetal calf serum (FCS) (Hyclone).
Alternatively, hESC were cultured on mitomycin-C treated human foreskin fibroblasts (HFF; ATCC, CRL-2097) in KSR media consisting of DMEM/nutrient mixture F-12, supplemented with 0.1 mM […], 1% nonessential amino acids (NEAA), 2 mM glutamine, 25 U/ml penicillin, 25 μg/ml streptomycin and 20% knockout serum replacement (all from Invitrogen).
All cells were cultured at 37° C. in 5% CO2 with 100% humidity. Colonies were mechanically dissected every 7 days (subcultivated or passaged) and transferred to freshly prepared MEFs or HFFs. Media was changed every second day.
(§1) Neuronal differentiation was achieved using the noggin induction method described for mouse neurospheres as adapted by Dottori for human neurospheres (Dottori & Pera, 2007). The colonies were maintained at 37° C., with 5% CO2 in hESC medium supplemented with 500 ng/ml of Noggin for 14 days while replacing Noggin every other day.
At this point, the cells were washed with PBS and the colonies were again mechanically dissociated, but this time the central (differentiated) part of the colony was also cut into smaller pieces using a 26-gauge needle. The pieces were transferred to individual wells in a low adherent 96-well plate containing Neurobasal®A (NBM) (Invitrogen) supplemented with 1× X B-27® (Invitrogen) and 1× N-2 (Invitrogen) 20 ng/ml human recombinant EGF and 20 ng/ml human recombinant bFGF (Pharmacia). Media was changed every 2 to 3 days to allow neurosphere formation over 2 weeks.
In order to facilitate neuronal differentiation, neurospheres were again separated into smaller pieces under a dissection microscope, and three to four pieces were transferred to each well of a 96-well plate. Prior to this transfer, the plate was pre-coated with poly-D-lysine (10 μg/ml in PBS), washed in PBS, recoated with mouse laminin (5 μg/ml in PBS), and washed again. The cells were then grown for 11 days (with media changed every two days) in NBM lacking growth factors prior to induction of injury and assessment of hypothermia.
On the day of experiments, the medium was changed to NBM+N2 containing a B27 preparation lacking the usual antioxidants (Invitrogen; 10889-038) to eliminate their confounding effects (NBM-AO).
To maintain isoosmotic pressure conditions, 25 mM 2-deoxy-D-glucose was added to NBM-AO medium and equilibrated for 30 minutes at room temperature before the initial media change as described above. […] Culture supernatant was removed after this 4 hour period and stored at 4° C. until analysed for lactate dehydrogenase (LDH) activity.
The media was replaced with fresh NBM-AO and the cells were incubated for a further 20 hours containing drug, before again measuring LDH. Oxidative stress was induced by adding 50 μM fresh H2O2 (Sigma, H1009) to the growth factor negative NBM on initiation of the experiment with continued culture for 4 hours when LDH was measured and NBM-AO without H2O2 was returned to the culture which was maintained for a further 20 hours before again measuring LDH.

neuronal stem cells = assay: Neuronal chemoattraction; format: cell-based
CXCR4 gene expression = CXCR4 gene expression by real time PCR; format: cell-based, human; details: W9-hESCs
Procedure: The second experiment was done to assess the capability of NRP2945 for regulating the gene expression of its target receptor subunit CXCR4. For this purpose, W9-hESCs were either exposed to 10 minute, 30 minute or 60 minute of either 10 pM or 100 pM of NRP2945 under normoxic conditions; or in combination with 4 hours of OGD injury at concentrations of either 10 pM or 100 pM of NRP2945. At the end of the 4 hours, mRNA was extracted from all the cell samples, cDNA synthesis was performed using the SuperSript® cDNA kit (Invitrogen) followed by real time PCR. The efficacy of the real time PCR was 99% when using the following primers for the CXCR4 product propagation: […]
according to the publication: Nagase, Miyamasu et al. (2000) - J Immunol 164: 5935-5943

human W9-hESCs [2] = assay: TUNEL staining for apoptotic cell death after H2O2 injury; format: cell-based; details: H2O2 oxidative stress, 24 hours; 100 fM NRP2945
Procedure: as §1
At this point, the cells were washed with PBS and the colonies were again mechanically dissociated, but this time the central (differentiated) part of the colony was also cut into smaller pieces using a 26-gauge needle. […]
The media was replaced with fresh NBM-AO and the cells were incubated for a further 20 hours containing drug, before again measuring LDH. Oxidative stress was induced by adding 50 μM fresh H2O2 (Sigma, H1009) to the growth factor negative NBM on initiation of the experiment with continued culture for 4 hours when LDH was measured and NBM-AO without H2O2 was returned to the culture which was maintained for a further 20 hours before again measuring LDH. […]
Tunnel positive cells, wells were imaged and the images re-coded independently before quantitation. No additional blinding was performed for the machine read LDH assay process.

Gly Arg Arg Ala Ala Pro Gly Arg Aib Gly Gly (GRRAAPGR[Aib]GG) [NRP2945, synthetic 11-mer peptidomimetic optimized for stability and pharmacokinetics]
neuroprotective effects during OGD (human W9-hESCs [1]; 100 fM NRP2945): did not show neuroprotective effects
decrease in LDH detected cell death in presence of CXCR4 inhibitor (human W9-hESCs [1]; 4 hours of OGD injury, 100 pM NRP2945 plus 300 nM AMD3100): abolished
decrease in LDH detected cell death (human W9-hESCs [1]; AMD3100 experiment, 4 hours of OGD injury, 100 pM NRP2945 without inhibitor): 44%
reduction of LDH release, net effect at 24 hours (human W9-hESCs [1]; AMD3100 experiment, OGD, 100 pM NRP2945 without inhibitor): 55%
reduction in LDH detected cell death (human W9-hESCs [1]; OGD, 1 pM NRP2945 at injury induction): 23%
reduction in LDH detected cell death (human W9-hESCs [1]; OGD, 10 pM NRP2945 at injury induction): 37%
reduction in LDH detected cell death (human W9-hESCs [1]; OGD, 100 pM NRP2945 at injury induction): 43%
reduction of LDH release, net effect at 24 hours (human W9-hESCs [1]; OGD, 1 pM NRP2945): 28%
reduction of LDH release, net effect at 24 hours (human W9-hESCs [1]; OGD, 10 pM NRP2945): 44%
reduction of LDH release, net effect at 24 hours (human W9-hESCs [1]; OGD, 100 pM NRP2945): 52%
reduction of LDH release, net effect at 24 hours, in presence of CXCR4 inhibitor (human W9-hESCs [1]; OGD, 100 pM NRP2945 plus 300 nM AMD3100): blocked
reduction of LDH release, net effect at 24 hours (human W9-hESCs [1]; OGD, 100 fM NRP2945): 17%
decrease of delayed injury (LDH) (human W9-hESCs [1]; 10 pM NRP2945): 67%
decrease of delayed injury (LDH) (human W9-hESCs [1]; 100 pM NRP2945): 79%
reduction in LDH detected cell death (human W9-hESCs [1]; repeat experiment, OGD, 10 pM NRP2945 during injury induction): 41%
reduction in LDH detected cell death (human W9-hESCs [1]; repeat experiment, OGD, 10 pM NRP2945 one hour after injury induction): 31%
reduction in LDH detected cell death (human W9-hESCs [1]; repeat experiment, OGD, 100 pM NRP2945 during injury induction): 47%
reduction in LDH detected cell death (human W9-hESCs [1]; repeat experiment, OGD, 100 pM NRP2945 one hour after injury induction): 34%
reduction of LDH release, net effect at 24 hours (human W9-hESCs [1]; repeat experiment, OGD, 10 pM NRP2945 added at 0 hours): 48%
reduction of LDH release, net effect at 24 hours (human W9-hESCs [1]; repeat experiment, OGD, 10 pM NRP2945 added at 1 hour): 36%
reduction of LDH release, net effect at 24 hours (human W9-hESCs [1]; repeat experiment, OGD, 10 pM NRP2945 added at 3 hours): 22%
reduction of LDH release, net effect at 24 hours (human W9-hESCs [1]; repeat experiment, OGD, 100 pM NRP2945 added at 0 hours): 54%
reduction of LDH release, net effect at 24 hours (human W9-hESCs [1]; repeat experiment, OGD, 100 pM NRP2945 added at 1 hour): 35%
reduction of LDH release, net effect at 24 hours (human W9-hESCs [1]; repeat experiment, OGD, 100 pM NRP2945 added at 3 hours): 22%
neuronal chemoattractive potency relative to SDF-1 (neuronal stem cells; NRP2945 versus SDF-1): more than 1 million
EC50 values for chemoattraction (neuronal stem cells; preliminary experiments): lower femtomolar range
CXCR4 gene expression in the presence of OGD (CXCR4 gene expression; 4 hours of OGD, 10 pM or 100 pM NRP2945): unchanged
expression of CXCR4 gene (CXCR4 gene expression; normoxic conditions, 10 pM or 100 pM NRP2945, relative to normoxic control, normalised to β actin): decreased significantly after only 10 minutes
time of peak in CXCR4 gene down-regulation (CXCR4 gene expression; normoxic, maintained for at least 1 hour): 30 min
extent of CXCR4 down-regulation (CXCR4 gene expression; within 30 minutes): constitutively expressed levels seen in a human tissue cDNA library
cells spared from apoptosis (TUNEL) (human W9-hESCs [2]): 56.2%
